In experiment [1] the test system is CBSA-5335 (fluorophore/quencher-modified) (DNA, aptamer, C3 spacer abasic at 10 of strand 2) CTCCTTCAACGAAGTGGGTCTCCTTCAACGAAGTGGGTCTC/GAGACAAGGNGACAAGGAGT
Kind of experiment: fluorophore/quencher assembly assay. Particulars: 100 μM MgCl2.

Experiment [2] has as its system CBSA-5335-GT (fluorophore/quencher-modified) (DNA, aptamer, C3 spacer abasic at 10 of strand 2) CTCCTTCAATGAAGTGGGTCTCCTTCAACGAAGTGGGTCTC/GAGACAAGGNGACAAGGAGT
Description: fluorophore/quencher assembly titration, Hill fit. To be noted: 100 μM MgCl2; 10 mM Tris-HCl, pH 7.4, room temperature; 1 μM each strand; nH 1.5; apparent.

In experiment [3] the test system is 38-GC-20A (DNA, aptamer) GGGAGACAAGGAAAATCCTACAACGAAGTGGGTCTCCC
Kind of experiment: ITC. To be noted: 20 μM aptamer, 500 μM cocaine titrant.

For experiment [4], the system named is CBSA-M1 (DNA, aptamer, C3 spacer abasic at 10 of strand 2) CTCCTTCAACGAAGTGGGTTCCTTCGACGAAGTGGGTCTC/GAGACAAGGNACAAGGAG
Description: ATMND quenching assembly assay. Particulars: 100 μM MgCl2; 10 mM Tris-HCl, pH 7.4; 1 μM each strand; 200 nM ATMND; cocaine tested at 250 μM.

In experiment [5] the test system is 38-GC (DNA, aptamer) GGGAGACAAGGAAAATCCTTCAACGAAGTGGGTCTCCC
Description: ITC. Particulars: 20 μM aptamer, 500 μM cocaine titrant.

Experiment [6] concerns 38-GC-21T (DNA, aptamer) GGGAGACAAGGAAAATCCTTTAACGAAGTGGGTCTCCC
Description: ITC. To be noted: 20 μM aptamer, 500 μM cocaine titrant.

The test system of experiment [7] is CBSA-5325 (DNA, aptamer, C3 spacer abasic at 10 of strand 2) CTCCTTCAACGAAGTGGGTTCCTTCAACGAAGTGGGTCTC/GAGACAAGGNACAAGGAG
Kind of experiment: ATMND quenching assembly assay. To be noted: 100 μM MgCl2; 10 mM Tris-HCl, pH 7.4; 1 μM each strand; 200 nM ATMND; 250 μM cocaine, 72% quenching.

Experiment [8] relates to LSA (DNA, aptamer, C3 spacer abasic at 10 of strand 2) CTCCTTCAACGAAGTGGGTTCCTTGTCTC/GAGACAAGGNACAAGGAG
Kind of experiment: ATMND quenching assembly assay. To be noted: 100 μM MgCl2; 10 mM Tris-HCl, pH 7.4; 1 μM each strand; 250 μM cocaine, additional 10% change; mostly pre-assembled.

For experiment [9], the system named is CBSA-5335 (fluorophore/quencher-modified) (DNA, aptamer, C3 spacer abasic at 10 of strand 2) CTCCTTCAACGAAGTGGGTCTCCTTCAACGAAGTGGGTCTC/GAGACAAGGNGACAAGGAGT
Description: fluorophore/quencher assembly titration, Hill fit. To be noted: 100 μM MgCl2; 10 mM Tris-HCl, pH 7.4, room temperature; 1 μM each strand; nH 1.5; apparent; b21 prints 33 μM.

Experiment [10] has as its system CBSA-5435 (DNA, aptamer, C3 spacer abasic at 11 of strand 2) CTCCTTCAACGAAGTGGGTCTTCCTTCAACGAAGTGGGTCTC/GAGACAAGGANGACAAGGAG
Kind of experiment: ATMND quenching assembly assay. Particulars: 100 μM MgCl2.

The subject of experiment [11] is 38-GC-22G (DNA, aptamer) GGGAGACAAGGAAAATCCTTCGACGAAGTGGGTCTCCC
Description: ITC. To be noted: 20 μM aptamer, 500 μM cocaine titrant.

Experiment [12] has as its system CBSA-5445 (DNA, aptamer, C3 spacer abasic at 11 of strand 2) CTCCTTCAACGAAGTGGGTTCTTCCTTCAACGAAGTGGGTCTC/GAGACAAGGANGAACAAGGAG
Description: ATMND quenching assembly assay. To be noted: 100 μM MgCl2.

Experiment [13] deals with PSA (DNA, aptamer, C3 spacer abasic at 3 of strand 2) CTCCTTCAACGAAGTGGGTTCC/GGNACAAGGAG
Kind of experiment: ITC, single-site fit. To be noted: 100 μM MgCl2; 10 mM Tris-HCl, pH 7.4, 20 °C.

The test system of experiment [14] is 38-GC-22T (DNA, aptamer) GGGAGACAAGGAAAATCCTTCTACGAAGTGGGTCTCCC
Kind of experiment: ITC. Particulars: 20 μM aptamer, 500 μM cocaine titrant.

Experiment [15] deals with CBSA-M2 (DNA, aptamer, C3 spacer abasic at 10 of strand 2) CTCCTTCGACGAAGTGGGTTCCTTCAACGAAGTGGGTCTC/GAGACAAGGNACAAGGAG
Description: ATMND quenching assembly assay. To be noted: 100 μM MgCl2; 10 mM Tris-HCl, pH 7.4; 1 μM each strand; 200 nM ATMND; cocaine tested at 250 μM.

The test system of experiment [16] is 38-GC-20C (DNA, aptamer) GGGAGACAAGGAAAATCCTCCAACGAAGTGGGTCTCCC
Kind of experiment: ITC. Particulars: 20 μM aptamer, 500 μM cocaine titrant.

For experiment [17], the system named is CBSA-5325 (fluorophore/quencher-modified) (DNA, aptamer, C3 spacer abasic at 10 of strand 2) CTCCTTCAACGAAGTGGGTTCCTTCAACGAAGTGGGTCTC/GAGACAAGGNACAAGGAGT
Description: fluorophore/quencher assembly titration, Hill fit. To be noted: 100 μM MgCl2; 10 mM Tris-HCl, pH 7.4, room temperature; 1 μM each strand; nH 1.1; apparent.

In experiment [18] the test system is CBSA-5325 (DNA, aptamer, C3 spacer abasic at 10 of strand 2) CTCCTTCAACGAAGTGGGTTCCTTCAACGAAGTGGGTCTC/GAGACAAGGNACAAGGAG
Kind of experiment: fluorescence quenching titration, Scatchard. To be noted: 100 μM MgCl2; 10 mM Tris-HCl, pH 7.4; 200 nM ATMND; 1 mM cocaine present (cocaine-assembled aptamer).

Experiment [19] deals with LSA (DNA, aptamer, C3 spacer abasic at 10 of strand 2) CTCCTTCAACGAAGTGGGTTCCTTGTCTC/GAGACAAGGNACAAGGAG
Kind of experiment: fluorescence quenching. Particulars: 100 μM MgCl2; 10 mM Tris-HCl, pH 7.4; 1 μM each strand; 200 nM ATMND; no cocaine; 75% quenching.

Consider `CCOC(=O)[C@H]1[C@@H](OC(=O)c2ccccc2)C[C@@H]2CC[C@H]1N2C`, for which the binding result in experiment [1] (10% saliva, room temperature, 19% cross-reactivity at 50 μM, 3% at 5 μM) is “weak”.

As for `CN1CCC[C@H]1c1cccnc1`, the binding entry in experiment [1] (10% saliva, 10 mM Tris-HCl, pH 7.4, room temperature, tested at 50 μM) is on record as “no”.

As to `CN1[C@H]2CC[C@@H]1[C@@H](C(=O)O)[C@@H](OC(=O)c1ccccc1)C2`, the binding entry in [1] is “no”.

With `COC(=O)C1=CC[C@@H]2CC[C@H]1N2C`, the binding result in [1] was “no”.

As for `COC(=O)[C@H]1[C@@H](OC(=O)c2ccccc2)C[C@@H]2CC[C@H]1N2C`, the “K 1/2” value was 125 µM in experiment [2], 36 µM in [9] and 106 µM in experiment [17]. Besides, the dissociation constant KD (commonly a measure of binding affinity in units of concentration) in experiment [3] is 169 µM; in experiment [5], 2.60 µM; in experiment [6], 49.3 µM; in [13] it was 2000 µM; in experiment [14], 169 µM; in experiment [16], 714 µM. Besides, the binding entry in experiment [4] is given as “no”; in [7], “yes”; in experiment [8], “weak”; in experiment [10] it was “yes”; in [11] it was “no”; in experiment [12], “yes”. Moreover, the binding result in experiment [15] is reported as “no”.

As for `Cc1nc2nc(N)ccc2c(C)c1C`, the equilibrium dissociation constant (KD) in [18] worked out at 0.365 µM. Moreover, the binding entry in experiment [19] is recorded as “yes”.

Source of the values: publication PMC5308383 (2016).
